Measurements as given in the Bradley open melting point set (2014).
“And” between values parts separate entries of the source, which are not always exact repeats. Equal values may be shown once.

Work on `OCCN(CCO)C(CO)(CO)CO` [2,2-bis(hydroxymethyl)-2,2',2''-nitrilotriethanol] yielded a melting point of 104 °C.
With `OCC(F)F` [2,2-difluoroethanol] the melting point was -28 °C.
`CCC(O)C(C)(C)C` (stereo not given) [2,2-dimethyl-3-pentanol] [listing 1 of 2 here] showed a melting point of 5 °C.
Compound `CCC(O)C(C)(C)C` (stereo not given) [2,2-dimethyl-3-pentanol] [listing 2 of 2 here] has a melting point of -5 °C.
`CCC(C)(C)C` [2,2-dimethylbutane] gave a melting point of -100 °C.
Compound `CC(C)(C)C(=O)O` [2,2-dimethylpropanoic_acid] has a melting point of 36 °C.
In the case of `OCc1c(F)c(F)c(F)c(F)c1F` [2,3,4,5,6-Pentafluorobenzyl Alcohol], the melting point is reported as 37.5 °C.
Work on `CC(=O)OCC(OC(C)=O)C(OC(C)=O)C(OC(C)=O)C(OC(C)=O)C(=O)O` (stereo not given) [2,3,4,5,6-penta(acetyloxy)hexanoic acid] yielded a melting point of 110 °C.
For `NC(=O)c1c(F)c(F)c(F)c(F)c1F` [2,3,4,5,6-pentafluorobenzamide], the melting point was 148 °C.
For `Cc1c(C)c(C)c(CCl)c(C)c1C` [2,3,4,5,6-pentamethylbenzyl chloride], the melting point was 83 °C.
Work on `Cc1c(C)c(C)c2c(c1C)CC2=O` [2,3,4,5-Tetramethylbicyclo(4.2.0)octa-1,3,5-trien-7-one] yielded a melting point of 161 °C.
`O=C1C(c2ccccc2)=C(c2ccccc2)C(c2ccccc2)=C1c1ccccc1` [2,3,4,5-Tetraphenylcyclopenta-2,4-dien-1-one] gave a melting point of 218 °C.
With `OB(O)c1cc(F)c(F)c(F)c1F` [2,3,4,5-tetrafluorobenzeneboronic acid] the melting point was 253 °C.
`O=C(O)c1cc(F)c(F)c(F)c1F` [2,3,4,5-tetrafluorobenzoic acid] gave a melting point of 86 °C.
Work on `Cc1[nH]c(C)c(C)c1C` [2,3,4,5-tetramethylpyrrole] yielded a melting point of 105 °C.
Compound `OB(O)c1c(F)cc(F)c(F)c1F` [2,3,4,6-tetrafluorobenzeneboronic acid] has a melting point of 127 °C.
With `O=[N+]([O-])c1ccc(Cl)c(Cl)c1Cl` [2,3,4-trichloronitrobenzene] the melting point was 56 °C and 55.5 °C.
With `S=C=Nc1ccc(Cl)c(Cl)c1Cl` [2,3,4-trichlorophenyl isothiocyanate] the melting point was 70 °C.
For `Cc1cc(C)c(C)c(CCl)c1C` [2,3,5,6-tetramethylbenzyl chloride], the melting point was 70 °C.
`O=C(O)c1c(F)cnc(F)c1F` [2,3,5-trifluoropyridine-4-carboxylic acid] gave a melting point of 110 °C.
Compound `c1ccc2cc3cc4ccccc4cc3cc2c1` [2,3-Benzanthracene, Naphthacene] has a melting point of 341 °C.
`Nc1cccnc1N` [2,3-diaminopyridine] gave a melting point of 112 °C.
`CC(Br)C(C)(C)Br` (stereo not given) [2,3-dibromo-2-methylbutane] showed a melting point of 15 °C.
`CC(Br)C(Br)C(=O)O` (stereo not given) [2,3-dibromobutyric acid] showed a melting point of 86 °C.
In the case of `C=C(Cl)CCl` [2,3-dichloro-1-propene], the melting point is reported as -83 °C.
In the case of `COc1cccc(Cl)c1Cl` [2,3-dichloroanisole], the melting point is reported as 32 °C.
`Clc1cccnc1Cl` [2,3-dichloropyridine] gave a melting point of 67 °C.
With `Cc1cccc(Cl)c1Cl` [2,3-dichlorotoluene] the melting point was 6 °C.
`O=Cc1c(-c2ccccc2)nc2n1CCS2` [2,3-dihydro-6-phenylimidazo[2,1-b]thiazole-5-carboxaldehyde] showed a melting point of 123 °C.
For `c1ccc2c(c1)CCO2` [2,3-dihydrobenzo[b]furan], the melting point was -21 °C.
Work on `C=C(C)C(=C)C` [2,3-dimethyl-1,3-butadiene] yielded a melting point of -76 °C.
In the case of `C=C(C)C(C)C` [2,3-dimethyl-1-butene], the melting point is reported as -157 °C.
In the case of `C/C(C)=C(/C)C` [2,3-dimethyl-2-butene], the melting point is reported as -74 °C.
In the case of `Cc1c([N+](=O)[O-])cc[n+]([O-])c1C` [2,3-dimethyl-4-nitropyridine n-oxide], the melting point is reported as 93 °C.
In the case of `Cc1cccc(N)c1C` [2,3-dimethylaniline] [listing 1 of 2 here], the melting point is reported as 2 °C.
For `Cc1cccc(N)c1C` [2,3-dimethylaniline] [listing 2 of 2 here], the melting point was 3 °C.
With `O=c1c(-c2ccccc2)c1-c1ccccc1` [2,3-diphenyl-2-cyclopropen-1-one] the melting point was 120 °C.
`OB(O)c1cc(F)c(F)cc1F` [2,4,5-trifluorobenzeneboronic acid] showed a melting point of 100 °C.
Compound `C[SiH]1O[SiH](C)O[SiH](C)O[SiH](C)O1` (stereo not given) [2,4,6,8-tetramethylcyclotetrasiloxane] has a melting point of -69 °C.
`Cc1cc(C)nc(C)c1` [2,4,6-collidine] gave a melting point of -43 °C.
With `Oc1c(Br)cc(Br)cc1Br` [2,4,6-tribromophenol] the melting point was 89 °C.
`NS(=O)(=O)c1c(Cl)cc(Cl)cc1Cl` [2,4,6-trichlorobenzenesulfonamide] gave a melting point of 180 °C.
`O=C(O)c1c(Cl)cc(Cl)cc1Cl` [2,4,6-trichlorobenzoic acid] gave a melting point of 163 °C.
`Clc1cc(Cl)nc(Cl)n1` [2,4,6-trichloropyrimidine] gave a melting point of 23 °C.
`Cc1cc(C)c(N=C=S)c(C)c1` [2,4,6-trimethylphenyl isothiocyanate] showed a melting point of 62 °C.
Work on `CCC(C)(C)c1ccc(OCC(=O)O)c(C(C)(C)CC)c1` [2,4-di(tert-pentyl)phenoxyacetic acid] yielded a melting point of 126 °C.
Work on `OB(O)c1cnc(OCc2ccccc2)nc1OCc1ccccc1` [2,4-dibenzyloxypyrimidine-5-boronic acid] yielded a melting point of 90 °C.
Work on `Nc1c(Br)cc(Br)cc1[N+](=O)[O-]` [2,4-dibromo-6-nitroaniline] yielded a melting point of 130 °C.
Compound `Cc1cc(C)c(Br)c(C)c1Br` [2,4-dibromomesitylene] has a melting point of 60 °C.
`Oc1ccc(Br)cc1Br` [2,4-dibromophenol] showed a melting point of 40 °C.
`O=[N+]([O-])c1ccc(Cl)cc1Cl` [2,4-dichloro-1-nitrobenzene] gave a melting point of 31 °C.
`CC(=O)c1ccc(Cl)cc1Cl` [2,4-dichloroacetophenone] gave a melting point of 34 °C.
Work on `O=C(O)c1ccc(Cl)cc1Cl` [2,4-dichlorobenzoic_acid] yielded a melting point of 159 °C.
Compound `O=C(Cl)c1ccc(Cl)cc1Cl` [2,4-dichlorobenzoyl chloride] has a melting point of 18 °C.
Compound `O=C=Nc1ccc(Cl)cc1Cl` [2,4-dichlorophenyl isocyanate] has a melting point of 59 °C.
With `Cc1ccc(Cl)cc1Cl` [2,4-dichlorotoluene] the melting point was -13 °C.
With `COc1ccc(C=O)c(OC)c1` [2,4-dimethoxybenzaldehyde] the melting point was 72 °C.
Compound `Cc1c[nH]c(C)n1` [2,4-dimethylimidazole] has a melting point of 86 °C.
Work on `CC(C)CC(C)C` [2,4-dimethylpentane] yielded a melting point of -119 °C.
`Nc1ccc([N+](=O)[O-])cc1[N+](=O)[O-]` [2,4-dinitroaniline] showed a melting point of 177 °C.
With `O=[N+]([O-])c1ccc(O)c([N+](=O)[O-])c1` [2,4-dinitrophenol] the melting point was 107 °C.
For `Cc1ccnc(C)c1` [2,4-lutidine], the melting point was -60 °C.
`Cc1cc(CCl)c(C)cc1CCl` [2,5-Di(Chloromethyl)-p-xylene] gave a melting point of 132 °C.
`CC(C)(C)c1ccc2oc(-c3ccc(-c4nc5cc(C(C)(C)C)ccc5o4)s3)nc2c1` [2,5-bis(5-tert-butyl-2-benzoxazolyl)thiophene] gave a melting point of 201 °C.
With `Cc1cc(CCl)c(C)cc1CCl` [2,5-bis(chloromethyl)-p-xylene] the melting point was 132 °C.
`O=[N+]([O-])c1c(Br)sc(Br)c1[N+](=O)[O-]` [2,5-dibromo-3,4-dinitrothiophene] showed a melting point of 136 °C.
`Nc1cc(Br)ccc1Br` [2,5-dibromoaniline] showed a melting point of 54 °C.
In the case of `Nc1cc(Cl)ccc1Cl` [2,5-dichloroaniline] [listing 1 of 2 here], the melting point is reported as 50 °C.
Compound `Nc1cc(Cl)ccc1Cl` [2,5-dichloroaniline] [listing 2 of 2 here] has a melting point of 50 °C.
For `OB(O)c1cc(Cl)ccc1Cl` [2,5-dichlorobenzeneboronic acid], the melting point was 213 °C.
`O=[N+]([O-])c1cc(Cl)ccc1Cl` [2,5-dichloronitrobenzene] gave a melting point of 56 °C.
In the case of `O=C(O)c1cc(Cl)c(C(=O)O)cc1Cl` [2,5-dichloroterephthalic acid], the melting point is reported as 295 °C.
`COc1ccc(OC)c(C(C)=O)c1` [2,5-dimethoxyacetophenone] gave a melting point of 20 °C.
Work on `COc1ccc(OC)c(B(O)O)c1` [2,5-dimethoxybenzeneboronic acid] yielded a melting point of 93 °C.
`Cc1ccc(C)c(C(=O)O)c1` [2,5-dimethylbenzoic acid] showed a melting point of 134 °C.
For `Cc1ccc(C)c(O)c1` [2,5-dimethylphenol], the melting point was 76 °C.
Work on `CC1=CC(=O)CC(C)(C)C1=O` [2,6,6-trimethyl-2-cyclohexene-1,4-dione] yielded a melting point of 20 °C.
For `O=C1C(Cl)=CC(=NCl)C=C1Cl` [2,6-Dichloro-4-(chloroimino)cyclohexa-2,5-dien-1-one], the melting point was 67 °C.
`O=C(O)c1c(Cl)cccc1Cl` [2,6-Dichlorobenzoic acid] showed a melting point of 144 °C.
Compound `CC1CNCC(C)O1` (stereo not given) [2,6-Dimethylmorpholine] has a melting point of -85 °C.
Work on `Cc1cccc(C)c1O` [2,6-Dimethylphenol] yielded a melting point of 49 °C.
In the case of `Cc1cccc(C)n1` [2,6-Dimethylpyridine], the melting point is reported as -6 °C.
Work on `N#Cc1c(OCC(F)(F)F)cccc1OCC(F)(F)F` [2,6-bis(2,2,2-trifluoroethoxy)benzonitrile] yielded a melting point of 116 °C.
`Cc1cc(C(C)(C)C)c(O)c(C(C)(C)C)c1` [2,6-di-tert-butyl-4-methylphenol] showed a melting point of 71 °C.
`CC(C)(C)C1=CC(=O)C=C(C(C)(C)C)C1=O` [2,6-di-tert-butyl-p-benzoquinone] gave a melting point of 67 °C.
In the case of `Nc1cccc(N)n1` [2,6-diaminopyridine], the melting point is reported as 122 °C.
For `Cc1c(N)cccc1N` [2,6-diaminotoluene], the melting point was 97 °C.
In the case of `CCCc1cc(Br)c(N)c(Br)c1` [2,6-dibromo-4-n-propylaniline], the melting point is reported as 56 °C.
Work on `Nc1c(Br)cc([N+](=O)[O-])cc1Br` [2,6-dibromo-4-nitroaniline] yielded a melting point of 207 °C.
`O=[N+]([O-])/C=C/c1c(Cl)cccc1Cl` [2,6-dichloro-beta-nitrostyrene] gave a melting point of 65 °C.
Compound `Nc1c(Cl)cccc1Cl` [2,6-dichloroaniline] has a melting point of 39 °C.
Work on `OB(O)c1c(Cl)cccc1Cl` [2,6-dichlorobenzeneboronic acid] yielded a melting point of 152 °C.
In the case of `O=C(O)c1c(Cl)cccc1Cl` [2,6-dichlorobenzoic_acid], the melting point is reported as 144 °C.
`[O-][n+]1c(Cl)cccc1Cl` [2,6-dichloropyridine n-oxide] gave a melting point of 138 °C.
`O=C(O)/C=C/c1c(F)cccc1F` [2,6-difluorocinnamic acid] gave a melting point of 125 °C.
